From patent publication US20220340908A1, “METHODS FOR DEPLETION OF DELETERIOUS MITOCHONDRIAL GENOMES” (University of Massachusetts, priority 2019, published 2022)
Residues, ends and D or L forms follow the SMILES beside them. *: point of attachment. Cbz = O=C(OCc1ccccc1)*

Columns and labels:
CoxI G6930A cybrid cells = experiment: Percentage of CoxI G6930A mtDNA by deep sequencing in cybrid cells; type: cell-based, human; settings: for CoxI G6930A mtDNA percentage: 3 weeks, from 86%; for CoxI G6930A mtDNA heteroplasmic ratio: 18.5 weeks continuous, from ˜90%
Description: Library construction for deep sequencing was modified from our previous report (7). Following CDDO treatment, cells were harvested at different time points and genomic DNA extracted. Briefly, regions flanking the CoxI […] site were PCR amplified using locus-specific primers bearing tails complementary to the Truseq adapters as described previously (38). 50-100 ng input genomic DNA (mtDNA included) was PCR amplified with Phusion High Fidelity DNA Polymerase (New England Biolabs):(98° C., 15 s; 67° C. 25 s; 72° C. 18 s)×30 cycles. 1 μl of each PCR reaction was amplified with barcoded primers to reconstitute the TruSeq adaptors using the Phusion High Fidelity DNA Polymerase (New England Biolabs): (98° C., 15 s; 61° C., 25 s; 72° C., 18 s)×9 cycles. Equal amounts of the products were pooled and gel purified. The purified library was deep sequenced using a paired-end 150 bp Illumina MiSeq run.
MiSeq data analysis for editing at target sites or off-target sites was performed using a suite of Unix-based-software tools. First, the quality of the paired-end sequencing reads (R1 and R2 fastq files) was assessed using FastQC (bioinformatics.babraham.ac.uk/projects/fastqc/). Raw paired-end reads were combined using paired end read merger (PEAR) (39) to generate single merged high-quality full-length reads. Reads were then filtered by quality (using Filter FASTQC (38)) to remove those with a mean PHRED quality score under 30 and a minimum per base score under 24. Each group of reads was then aligned to a corresponding reference sequence using BWA (version 0.7.5) and SAMtools (version 0.1.19). To determine background SNP or sequencing errors, all reads from each negative control replicate were combined and aligned, as described above. Background SNP types and frequencies were then cataloged in a text output format at each base using bam-readcount (github.com/genome/bam-readcount). For each drug treatment group, the average background SNP frequencies (based on SNP type, position and frequency) of the triplicate negative control group were subtracted to obtain the accurate SNP frequencies.
(§1) The KSS cell line was a gift from Carlos Moraes (29, 30). The CoxI […] cell line was a gift from Giovanni Manfredi (28). Cells were cultured in DMEM (4 mM L-glutamine, 4.5 g/L glucose; Gibco, Thermo Fisher Scientific) plus 10% FBS with 1% pen-strep. Total cellular mtDNA was prepared as described (40). Cells were incubated continuously in the described concentration of CDDO for the indicated number of days. The cells were sub-cultured prior to confluence every 48 hours.

KSS heteroplasmic cells = experiment: Respiration assay, oxygen consumption rate (Seahorse), KSS cells; type: cell-based, human; settings: 0.1 μM or 0.25 μM, 4 weeks
Description: (§2) For mitochondrial respiration assays, oxygen consumption rate (OCR) was measured using a Seahorse Extracellular Flux Analyzer XFe96 (Seahorse Biosciences) as described (40). 14,000 cells were seeded per well and OCR was measured using the Cell MitoStress Kit (as described by the manufacture). 180 μl of XF-Media was added to each well and then the plates were subjected to analysis following sequential introduction of 1.5 μM oligomycin, 1.5 μM FCCP and 0.5 μM rotenone/antimycin as indicated. Data is normalized to total protein as determined by the BCA protein assay.

CoxI G6930A cells [1] = experiment: Respiration assay, oxygen consumption rate (Seahorse), CoxI G6930A cells; type: cell-based, human
Description: as §2

CoxI G6930A cells [2] = experiment: Cell viability (trypan blue), CoxI G6930A cells; type: cell-based, human; settings: 0.1 μM and 0.25 μM CDDO, 72 hours
Description: as §1
(§3) At the indicated time points, cells were stained with trypan blue (41) and quantified with an automated cell counter TC-20™ (Bio-Rad). The results are an average of three independent assays.

KSS cybrid cells = experiment: KSS ΔmtDNA quantification by qPCR in KSS heteroplasmic cybrid cells; type: cell-based, human; settings: for KSS ΔmtDNA percentage: 4 weeks, from ˜50%
Description: For human patient fibroblast cell lines, wild-type and ΔKSS primers were used to detect wild-type mtDNA or ΔKSS mtDNA. Primers that amplify a sequence within the B2M ([…]) gene were used as an internal control for normalization. Absolute quantification was also performed to determine the percentage or ratio of KSS ΔmtDNA relative to total mtDNA (KSS ΔmtDNA and wild-type mtDNA) as previously described (11). Primers that specifically amplify wild-type or ΔmtDNA are listed in Table A. Standard curves for each qPCR primer set were generated using purified plasmids individually containing approximately 1 kb of the mtDNA fragments specific for each primer set. A Student's t-test was employed to determine the level of statistical significance.
as §1
Cells were grown on 6-well plates and siRNAs were transfected with Lipofectamine RNAiMAX (Thermo Fisher Scientific) following the manufacturer's instructions. Human LONP1 RNAi was used in knockdown experiment (Dharmacon L-003979-00-0005) (e.g., a pool comprising GGAAAUCGGCCUACAAGAU (SEQ ID NO:1), GCGCAUGUAUGACGUGACA (SEQ ID NO:2), CGAGAGUACUUCCGCUUCA (SEQ ID NO:3), and GAAGAGACCAAUAUUCCUA (SEQ ID NO:4)).
ATF5 shRNA knockdown lentiviral constructs were generated using psp-108 vector (Addgene), and viruses were produced by co-transfection along with plasmids pMD2.G (Addgene) and psPAX2 (Addgene) into HEK293T cells. All viral titers were predetermined, and same number of viral particles was used for experimental and control samples. KSS cells were infected with lentiviruses, selected with puromycin for 5-7 days, and re-plated for proliferation. ATFS knockdown targeting sequences are: shRNA-1, 5′-[…]-3′ (SEQ ID NO:5); shRNA-2, 5′-[…]-3′ (SEQ ID NO:6); shRNA-3, 5′-[…]-3′ (SEQ ID NO:7); see horizondiscovery.com/en/products/gene-modulation/knockdown-reagents/shrna/PIFs/TRC-Lentiviral-shRNA?nodeid=entrezgene-22809#specifications.

KSS ΔmtDNA cells = experiment: Cell viability (trypan blue), KSS cells; type: cell-based, human; settings: 0.1 μM and 0.25 μM CDDO, 72 hours
Description: as §1, §3

[3] = 20 mg for 56 consecutive days; cited from earlier work
LONP1 protease = target: T1, LONP1 protease (Homo sapiens, UniProt P36776); settings: cited from earlier work
T1 sequence (P36776 68-959): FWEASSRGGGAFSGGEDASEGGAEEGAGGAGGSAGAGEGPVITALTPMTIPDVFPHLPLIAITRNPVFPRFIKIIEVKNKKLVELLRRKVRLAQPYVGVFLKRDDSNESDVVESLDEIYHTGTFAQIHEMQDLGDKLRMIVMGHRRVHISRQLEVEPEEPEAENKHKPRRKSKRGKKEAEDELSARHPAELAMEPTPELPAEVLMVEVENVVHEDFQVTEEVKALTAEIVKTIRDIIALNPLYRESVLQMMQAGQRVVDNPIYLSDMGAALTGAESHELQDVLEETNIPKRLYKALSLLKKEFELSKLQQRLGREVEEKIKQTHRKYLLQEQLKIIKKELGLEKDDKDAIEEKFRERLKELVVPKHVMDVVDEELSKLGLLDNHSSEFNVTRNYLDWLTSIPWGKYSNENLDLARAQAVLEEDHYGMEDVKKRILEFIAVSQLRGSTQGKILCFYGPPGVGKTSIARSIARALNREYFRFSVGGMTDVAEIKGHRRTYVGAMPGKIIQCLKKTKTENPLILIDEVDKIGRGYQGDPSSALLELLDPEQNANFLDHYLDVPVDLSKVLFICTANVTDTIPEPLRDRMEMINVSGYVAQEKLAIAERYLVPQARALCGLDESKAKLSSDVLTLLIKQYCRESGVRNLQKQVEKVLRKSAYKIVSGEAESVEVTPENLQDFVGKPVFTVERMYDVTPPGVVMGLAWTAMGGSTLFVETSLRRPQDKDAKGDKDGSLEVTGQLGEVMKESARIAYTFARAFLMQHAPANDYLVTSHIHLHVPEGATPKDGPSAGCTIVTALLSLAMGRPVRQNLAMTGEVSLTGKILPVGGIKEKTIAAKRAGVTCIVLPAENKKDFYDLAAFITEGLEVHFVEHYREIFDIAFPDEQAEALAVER

CC1(C)CC[C@]2(C(=O)O)CC[C@]3(C)[C@H](C(=O)C=C4[C@@]5(C)C=C(C#N)C(=O)C(C)(C)[C@@H]5CC[C@]43C)[C@@H]2C1 [CDDO, 2-cyano-3,12-dioxo-oleana-1,9(11)-dien-28-oic acid]
CoxI G6930A mtDNA percentage (CoxI G6930A cybrid cells; 0.1 μM): 68%
CoxI G6930A mtDNA heteroplasmic ratio (CoxI G6930A cybrid cells; 0.1 μM): ~47%
CoxI G6930A mtDNA percentage (CoxI G6930A cybrid cells; 0.25 μM): 72%
CoxI G6930A mtDNA heteroplasmic ratio (CoxI G6930A cybrid cells; 0.25 μM): 62%
increase in basal oxygen consumption (KSS heteroplasmic cells): ~2 fold
improvement of basal oxygen consumption (CoxI G6930A cells [1]; 0.1 μM, 3 weeks): ~2 fold
improvement of basal oxygen consumption (CoxI G6930A cells [1]; 18.5 weeks exposure): over 3 fold
maximal respiratory capacity (CoxI G6930A cells [1]; CDDO time course, 0.1 μM or 0.25 μM): increased
viability of CoxI G6930A cell line (CoxI G6930A cells [2]): neither concentration affected viability
KSS ΔmtDNA percentage (KSS cybrid cells; 0.1 μM): 19.6%
KSS ΔmtDNA percentage (KSS cybrid cells; 0.25 μM): 21.2%
viability of KSS cell line (KSS ΔmtDNA cells): neither concentration affected viability
tolerability [3]: well tolerated

CC(C)C[C@@H](C=O)NC(=O)[C@H](CC(C)C)NC(=O)[C@H](CC(C)C)NC(=O)OCc1ccccc1 [MG132, carbobenzoxy-Leu-Leu-leucinal] (Cbz-Leu-Leu-Leu-aldehyde)
inhibition of LONP1 protease (LONP1 protease): potent inhibitors

C=C1OC(=O)/C(=C\CCCCCCCCCCCCC)[C@@H]1O [Obtusilactone A]
inhibition of LONP1 protease (LONP1 protease): inhibitors of LONP1 protease

O=c1n(CCCN2CCN(c3cccc(Cl)c3)CC2)nc2ccccn12 [Trazadone]
heteroplasmy (ΔmtDNA) in KSS cells (KSS cybrid cells; shRNA lentivirus or multiple concentrations of drug, FIG. 11): improved heteroplasmy

(-)-sesamin
inhibition of LONP1 protease (LONP1 protease): inhibitors of LONP1 protease

Z-Leu-Leu-Leu-B(OH)2 [MG262]
inhibition of LONP1 protease (LONP1 protease): potent inhibitors

B1: LONP1 siRNA: Dharmacon L-003979-00-0005, siRNA pool comprising SEQ ID NO:1-4 against human LONP1 (nucleic acid)
chain 1: GGAAAUCGGCCUACAAGAU
chain 2: GCGCAUGUAUGACGUGACA
chain 3: CGAGAGUACUUCCGCUUCA
chain 4: GAAGAGACCAAUAUUCCUA
modifications: siRNA pool, further chemistry not given here
decrease of ΔmtDNAs (KSS cybrid cells; siRNA for 4 days, KSS cybrid line): 2.7 fold
heteroplasmy ratio (% KSS mtDNA) (KSS cybrid cells; siRNA for 4 days, from 56.9%): 27.6%
